How the values were obtained:
Format in all cases: cell-based, human
DU-145 = assay: MTT antiproliferation assay; conditions: for IC50: Homo sapiens, DU-145, MTT, 24 h, mean ± SEM; for SI (selectivity index): DU-145, SI = IC50 (WI-38)/IC50 (cancer cell line)
Protocol: (§1) The antiproliferation and cytotoxicity were assessed using 3-(4,5-dimethylthiazol-2-yl)-2,5-diphenyltetrazolium bromide (MTT, Serva) colorimetric assay. To investigate the antiproliferation, all cell lines were seeded at a density of 20,000 cells per well in 96-well plates and allowed to adhere overnight. […] These concentrations were prepared by diluting the stock solutions with serum-free culture media. The negative control cells were those treated with 0.1% DMSO solvent alone. The treated cells were handled in reduced light and maintained under standard culture growth conditions for 24 h. After the incubation period, MTT powder was prepared as a stock solution (5 mg/mL) and 20 μL of the MTT working reagent (final concentration 0.5 mg/mL) was added to each well. This was followed by incubation with MTT reagent for 4 h in a humidified atmosphere (37 °C, 5% CO2) with subsequent addition of 150 μL of DMSO solubilizing solvent and incubation for 20 min. The absorbance of solubilized violet formazan crystals was measured at 540 nm with Biotek 800 TS microplate reader. IC50 was calculated as the concentration of retinoid that produced 50% cell growth inhibition. For cytotoxicity assessment, WI-38 normal human fibroblast cells were used for the calculation of SI which is the ratio of IC50 retinoid (WI-38)/IC50 retinoid (cancer cell line).

HCT-116 = assay: MTT antiproliferation assay; conditions: for IC50: Homo sapiens, HCT-116, MTT, 24 h, mean ± SEM; for SI (selectivity index): HCT-116, SI = IC50 (WI-38)/IC50 (cancer cell line)
Protocol: as §1

MCF-7 = assay: MTT antiproliferation assay; conditions: for IC50: Homo sapiens, MCF7, MCF-7, MTT, 24 h, mean ± SEM; for SI (selectivity index): MCF-7, SI = IC50 (WI-38)/IC50 (cancer cell line)
Protocol: as §1

Caco-2 cells = assay: Cell cycle analysis (PI, flow cytometry); conditions: Caco-2, IC50 of retinoid
Protocol: The cell cycle analysis was performed using flow cytometry (Beckman Coulter, Brea, CA, USA). […] After incubation, cells were harvested, fixed with 70% alcohol overnight, and stained with PI (50 µg/mL). DNA content was measured by Beckman Coulter Epics XL flow cytometer and G0/G1, S, and G2/M cells were gated as appropriate using Flowing Software 2.5.1 (Turko Bioimaging, Turku, Finland).

cleaved Cas-3 = assay: Western blotting in Caco-2 cells; conditions: Caco-2, IC50 dose, 24 h, normalized to β-actin
Protocol: The expression of Bax, Bcl-2, Cyt-C, cleaved cas-3 and p53 proteins in Caco-2 cells was determined using Western blot procedure according to the methods mentioned previously. […] Then, cells were lysed in 150 µL pre-cold lysis buffer [Tris-Base “10 mM”, NaCl “100 mM”, Ethylene glycol bis (2-aminoethyl) tetraacetic acid (EGTA) “20 mM”, ethylenediaminetetraacetic acid (EDTA) “25 mM”, 1% (v/v) NP-40, and 1% (v/v) Triton X-100; pH 7.4] immediately supplemented with 1:450 protease and phosphatase inhibitors cocktail (Sigma-Aldrich). Caco-2 cells were immediately collected by cell scraper, sonicated, and centrifuged at 12,000 rpm for 15 min. Total proteins in the produced supernatant were determined colorimetrically using the Pierce™ 660 nm Assay (Thermo Scientific, Rockford, IL, USA). Equal amounts (30 µg) of protein were mixed with sodium dodecyl sulfate (SDS)-loading buffer containing Tris-HCl, dithiothreitol (DTT), SDS, glycerol, and Bromophenol blue. The protein samples were then denatured by boiling for 5 min, allowed to cool on ice for 10 min and separated by SDS-polyacrylamide gel electrophoresis (Cleaver Scientific Ltd., Rugby, Warwickshire, UK), and transferred onto Polyvinylidene Difluoride (PVDF) membranes for 30 min using Trans-Blot® SD semi-dry transfer cell (Biorad). Membranes were then blocked with 5% (w/v) blotting-grade dry milk (Biorad) in Tris-buffered saline-Tween-20 (TBS-T), washed and incubated with antibodies against Bax, Bcl-2, cleaved caspase-3 (1:100–1:2000, Cell Signaling Technology), cytochrome c (1:500, Santa Cruz Biotechnology), p53 (1:1500, Abcam) and β-actin (1:2500, Sigma-Aldrich) for 16–17 h at 4 °C in a humidified chamber. The blots were washed, incubated at RT with matched horseradish peroxidase (HRP)-linked secondary antibodies (Dako, Denmark) for 1.5 h, and the bands were visualized with chemiluminescence Western Lightning ECL (Perkin Elmer, Waltham, MA) for 1 min in Chemi-Doc imager (Biorad, Hercules, CA, USA) and finally analyzed with Bio-Rad Image Lab software with normalization to β-actin.

Caspase-3 (Cas-3) = assay: Gene expression analysis (qPCR) in Caco-2 cells; conditions: Caco-2, IC50, 24 h, relative to 0.1% DMSO control
Protocol: (§2) Sensitive cancer cell line (Caco-2) was used for gene expression analysis of different genes controlling differentiation, apoptosis, tumor resistance, aggressiveness, and metastasis. […] After incubation, cells were harvested, and the total RNA was purified using Favor-Prep^TM Blood/Cultured cell total RNA purification mini kit (Favorgen Biotech Corp., Ping-Tung, Taiwan). RNA was reverse transcribed into the first-strand cDNA using Revert Aid First Strand cDNA Synthesis Kit (Thermo Scientific, Waltham, MA, USA). HERA^PLUS SYBR® Green qPCR Kit (Willowfort, Nottingham, UK) was utilized in quantitative polymerase chain reactions (qPCR). Gene expression was analyzed and quantified using the 2ˆ^−ΔΔCT method.

RAR-γ = assay: Gene expression analysis (qPCR) in Caco-2 cells; conditions: Caco-2, IC50, 24 h, relative to 0.1% DMSO control, normalized to GAPDH
Protocol: as §2

WRN = assay: Gene expression analysis (qPCR) in Caco-2 cells; conditions: Caco-2, IC50, 24 h, relative to 0.1% DMSO control
Protocol: as §2

Cytochrome-C = assay: Immunocytochemistry of cytosolic Cyt-C in Caco-2 cells; conditions: Caco-2, IC50, 24 h, compared to 0.1% DMSO control
Protocol: Caco-2 cells were seeded onto coverslips at a density of 1 × 10^6 cells using 0.1 mg/mL Poly-L-Lysine (Sigma-Aldrich, St. Louis, MO, USA) for immunocytochemistry (ICC) analysis. After treatment with IC50 of retinoids, cells were fixed in formalin neutral buffer (FNB) solution. The fixed cells were permeabilized with 0.1% Triton-x 100 and then blocked in 1% bovine serum albumin (BSA, prepared in PBS containing 0.1% Tween 20) for 30 min. Then, cells were incubated with Alexa Fluor® 488-conjugated anti-cytochrome C antibody overnight. After incubation, nuclei of cells were stained with Hoechst 33,258 (Sigma-Aldrich, St. Louis, MO, USA, 1:500). The coverslips were mounted in anti-fading medium (0.1% p-phenylenediamine, dissolved in 90% glycerin/PBS) and cytochrome C protein expression was detected using Carl Zeiss LSM 710 confocal microscope.

| IC50 (DU-145) [µM] | IC50 (HCT-116) [µM] | IC50 (MCF-7) [µM] | Structure (SMILES) | % G0-G1 (Caco-2 cells; 12 h treatment) [%] | % G2M (Caco-2 cells; 12 h treatment) [%] | % S (Caco-2 cells; 12 h treatment) [%] | % SubG0-G1 (Caco-2 cells; 12 h treatment) [%] | %G2M/G0-G1 (Caco-2 cells; 12 h treatment) [%] | % G0-G1 (Caco-2 cells; 24 h treatment) [%] | % G2M (Caco-2 cells; 24 h treatment) [%] | % S (Caco-2 cells; 24 h treatment) [%] | % SubG0-G1 (Caco-2 cells; 24 h treatment) [%] | %G2M/G0-G1 (Caco-2 cells; 24 h treatment) [%] | activated (cleaved) Cas-3 protein level (cleaved Cas-3) | SI (selectivity index) (DU-145) | SI (selectivity index) (HCT-116) | SI (selectivity index) (MCF-7) | Cas-3 gene expression, fold change (Caspase-3 (Cas-3)) | RAR-γ gene expression, fold increase (RAR-γ) | WRN gene expression, fold change (WRN) | also measured |
| --- | --- | --- | --- | --- | --- | --- | --- | --- | --- | --- | --- | --- | --- | --- | --- | --- | --- | --- | --- | --- | --- |
| > 100 | > 100 | 99 ± 0.26 | CC1=C(/C=C/C(C)=C/C=C/C(C)=C/C(=O)O)C(C)(C)CCC1 [ATRA, All-trans retinoic acid, reference compound] | 26.1 ± 3.6 | 16.3 ± 1.9 | 57.5 ± 8.1 | 0.14 ± 0.1 | 62.5 ± 8.8 | 37.1 ± 4.5 | 31.8 ± 4.8 | 29.5 ± 3.5 | 1.6 ± 0.19 | 85.7 ± 16.3 | increment in the level of activated Cas-3 |  |  |  |  |  |  |  |
| 86.9 ± 2 | > 100 | 9.4 ± 0.13 | CC1(C)CCC(C)(C)c2cc(C#Cc3cccc(C(=O)O)c3)ccc21 [EC19, 3-(5,5,8,8-tetramethyl-5,6,7,8-tetrahydronaphthalen-2-ylethynyl) benzoic acid] | 39.1 ± 6.7 | 9.1 ± 1.3 | 51.5 ± 7.2 | 0.29 ± 0.1 | 23.4 ± 2.8 | 29.0 ± 4.1 | 22.5 ± 3.1 | 44.0 ± 8.2 | 4.5 ± 0.6 | 77.6 ± 10.8 | increment in the level of activated Cas-3 | 0.56 ± 0.001 | <1 | 5.18 ± 0.1 | 8.6 fold | without affecting | ~ 40 fold | cytosolic Cyt-C protein released (anti-Cyt-C fluorescence intensity) (Cytochrome-C): significant increase |
| > 100 | 44.5 ± 1.1 | 5.56 ± 0.01 | CC1(C)CCC(C)(C)c2cc(C#Cc3ccc(C(=O)O)cc3)ccc21 [EC23, 4-(5,5,8,8-tetramethyl-5,6,7,8-tetrahydronaphthalen-2-ylethynyl) benzoic acid] | 58.7 ± 8.2 | 6.8 ± 0.8 | 34.0 ± 4.1 | 0.46 ± 0.1 | 11.6 ± 1.7 | 32.7 ± 4.6 | 15.8 ± 1.9 | 47.6 ± 9.1 | 3.9 ± 0.43 | 48.3 ± 6.8 |  | <1 | 0.18 ± 0.003 | 1.44 ± 0.004 | did not induce significant expression | 2.3 fold | ~ 40 fold | cytosolic Cyt-C protein released (anti-Cyt-C fluorescence intensity) (Cytochrome-C): second rank |
